From patent US20110159304A1, “ANTI-SULPHATE REDUCING BACTERIA COMPOSITION COMPRISING 1,2-BENZISOTHIAZOL-3(2H)-ONE, IRGASAN, BENZYL-2-BROMOACETATE, 2,2-DIBROMO-2-CYANOACETAMIDE, AND 2-BROMO-2-NITROPROPAN-1,3-DIOL” (KOREA GAS CORPORATION, priority 2009, published 2011)
Where two headings read alike, the source gives them in different places.

Tests used:
Assay type in all cases: cell-based
[1] = tested on: Desulfovibrio desulfuricans KCTC 5786; assay: Antibacterial activity evaluation, paper disk clear zone and MIC; details: for zone of inhibition at 0.001 % / zone of inhibition at 0.01 % / zone of inhibition at 0.1 % / zone of inhibition at 1 %: Desulfovibrio desulfuricans; for zone of inhibition at 0.001 %: antibacterial agent concentration 0.001%; for antibacterial activity relative to other commercially used antibacterial agents: compared by MIC with 1-hydroxypyridine-2-tionzinc, 2-methyl-isothiazolin-3-one and the like; for MIC minimum inhibitory concentration: paper disk test, concentrations 1.0-0.001%, 37° C.
Experimental: Desulfovibrio desulfuricans KCTC 5786 was used as a test sulphate reducing bacteria strain.
The all materials used in the test, disk paper, medium and so on, were sterilized for 15 min at 121° C. Bacteria's culture and antibacterial activity test were performed in an anaerobic chamber (Anaerobic System, Form a Sci; condition maintaining not more than 5 ppm of oxygen concentration).
After culturing the test strain for not less than 3 days, the volume of the culture was adjusted to 10^5-7/mL to prepare for plating it on Desulfovibrio medium, and the test compounds were resolved in a suitable solvent for use (ethanol for lipid soluble compounds, and distilled water for water soluble compounds).
(§1) The experiment proceeded with varying the concentration of the compounds used in the experiment to 1.0%, 0.1%, 0.01%, and 0.001%. The 8 mm of a paper disk was placed on the plate prepared by plating the culture, and were inoculated with 50 μl of various concentrations of the compound. After culturing the strain for 24, and 48 hrs at 37° C., the clear zone (mm) representing antibacterial activity was measured and Minimum Inhibitory Concentration (MIC) was determined.

[2] = tested on: Desulfovibrio desulfuricans KCTC 5786; assay: Antibacterial activity test of antibacterial agent-added coating material (adhesive, primer)
Experimental: as §1
Test equipment and materials, and test condition are as follows: • Coating material type: adhesive (Canusa), primer (Polyken) • Mixed antibacterial agent's concentration: control, 0.5, 1.0, 2.0, 5.0 wt %
As an adhesive specimen, the components were mixed by manual stirring in an oven at 150° C., and then an 1 mm-thick adhesive sheet was fabricated. As a primer specimen, a 0.2 mm-thick sheet having a primer dry film was fabricated. The specimen was diced into a size of 15 mm×15 mm, and after UV sterilization, the antibacterial activity of the specimen was assessed using the same environment and method as in the test method of Experiment Example 1 described above.

[3] = tested on: Desulfovibrio desulfuricans KCTC 5786; assay: Antibacterial activity test after thermal shock (paper disk clear zone); details: for clear zone after thermal shock / clear zone before thermal shock: 0.1% condition; for clear zone after thermal shock: after thermal shock (180° C., 1 hr); for antibacterial activity after thermal shock: after 180° C., 1 hour, 0.1%
Experimental: as §1
Applying the heat shrinkable sheet using flames of torch, the temperature increased to about 150° C. and the exposure time was around 15 minutes. […] After 1,2-benzisothiazol-3(2H)-one, irgasan, benzyl-2-bromoacetate, 2,2-dibromo-2-cyanoacetamide, and 2-bromo-2-nitropropan-1,3-diol were exposed to higher temperature (180° C.) for a longer time (1 hour), the antibacterial activity was measured at a concentration of 0.1% using the same method as Experiment Example 1 (see, Table 3, FIGS. 3a to 3e).

[4] = KCTC5786, 8 mm paper disk, 50 μl, — = negative, read-out: CZ (mm) clear zone
[5] = KCTC5786, antibacterial agent concentration 0.01%, 8 mm paper disk, 50 μl, — = negative, read-out: CZ (mm) clear zone
[6] = KCTC5786, antibacterial agent concentration 0.1%, 8 mm paper disk, 50 μl, — = negative, read-out: CZ (mm) clear zone
[7] = KCTC5786, antibacterial agent concentration 1%, 8 mm paper disk, 50 μl, — = negative, read-out: CZ (mm) clear zone
[8] = adhesive (Canusa) with 0.5 wt % antibacterial agent
[9] = adhesive (Canusa) with 1.0 wt % antibacterial agent
[10] = adhesive (Canusa) with 2.0 wt % antibacterial agent
[11] = adhesive (Canusa) with 5.0 wt % antibacterial agent
[12] = primer (Polyken) with 0.5 wt % antibacterial agent
[13] = primer (Polyken) with 2.0 wt % antibacterial agent
[14] = primer (Polyken) with 5.0 wt % antibacterial agent
[15] = primer (Polyken) with 1.0 wt % antibacterial agent
[16] = KCTC5786, read-out: CZ (mm) clear zone
[17] = antibacterial agent concentration 1%, 8 mm paper disk, 50 μl, — = negative
[18] = antibacterial agent concentration 0.1%, 8 mm paper disk, 50 μl, — = negative

N#CC(Br)(Br)C(N)=O [2,2-dibromo-2-cyanoacetamide]
zone of inhibition at 0.001 % [1, 4]: ≥ 39 mm
zone of inhibition at 0.01 % [1, 5]: ≥ 39 mm
zone of inhibition at 0.1 % [1, 6]: ≥ 39 mm
zone of inhibition at 1 % [1, 7]: ≥ 39 mm
antibacterial activity relative to other commercially used antibacterial agents [1]: 10 times
Clear zone (mm), adhesive [2, 8]: 2 mm
Clear zone (mm), adhesive [2, 9]: 2.5 mm
Clear zone (mm), adhesive [2, 10]: ≧26 mm
Clear zone (mm), adhesive [2, 11]: ≧30.5 mm
Clear zone (mm), primer [2, 12]: 1.5 mm
Clear zone (mm), primer [2, 13]: 1 mm
Clear zone (mm), primer [2, 14]: 6.5 mm
clear zone after thermal shock [3]: 18.5 mm
clear zone before thermal shock [3]: 39.5 mm
antibacterial activity after thermal shock [3]: maintained the excellent antibacterial activity

O=[N+]([O-])C(Br)(CO)CO [2-bromo-2-nitropropan-1,3-diol]
zone of inhibition at 0.01 % [1, 5]: 1.5 mm
zone of inhibition at 0.1 % [1, 6]: 8 mm
zone of inhibition at 1 % [1, 7]: 18.5 mm
antibacterial activity relative to other commercially used antibacterial agents [1]: 10 times
Clear zone (mm), adhesive [2, 8]: 5.5 mm
Clear zone (mm), adhesive [2, 9]: 10.5 mm
Clear zone (mm), adhesive [2, 10]: 13 mm
Clear zone (mm), adhesive [2, 11]: 14.5 mm
Clear zone (mm), primer [2, 12]: 9 mm
Clear zone (mm), primer [2, 15]: 9 mm
Clear zone (mm), primer [2, 13]: 2 mm
Clear zone (mm), primer [2, 14]: 16.5 mm
clear zone after thermal shock [3]: 25 mm
clear zone before thermal shock [3]: 20 mm
antibacterial activity after thermal shock [3]: maintained the excellent antibacterial activity

O=C(CBr)OCc1ccccc1 [Benzyl-2-bromoacetate, benzyl-2-bromoacetate]
zone of inhibition at 0.001 % [1, 4]: 35 mm
zone of inhibition at 0.01 % [1, 5]: ≥ 39 mm
zone of inhibition at 0.1 % [1, 6]: ≥ 39 mm
zone of inhibition at 1 % [1, 7]: ≥ 39 mm
antibacterial activity relative to other commercially used antibacterial agents [1]: 10 times
Clear zone (mm), adhesive [2, 8]: 24 mm
Clear zone (mm), adhesive [2, 9]: 30 mm
Clear zone (mm), adhesive [2, 10]: 34 mm
Clear zone (mm), adhesive [2, 11]: ≧39 mm
Clear zone (mm), primer [2, 12]: ≧26 mm
Clear zone (mm), primer [2, 15]: ≧32 mm
Clear zone (mm), primer [2, 13]: ≧34 mm
Clear zone (mm), primer [2, 14]: ≧39 mm
clear zone after thermal shock [3]: 36 mm
clear zone before thermal shock [3]: 39 mm
antibacterial activity after thermal shock [3]: maintained the excellent antibacterial activity

O=c1[nH]sc2ccccc12 [1,2-benzisothiazol-3(2H)-one]
zone of inhibition at 0.001 % [1, 4]: 1 mm
zone of inhibition at 0.01 % [1, 5]: 2.5 mm
zone of inhibition at 0.1 % [1, 6]: 6.5 mm
zone of inhibition at 1 % [1, 7]: 13.5 mm
antibacterial activity relative to other commercially used antibacterial agents [1]: 10 times
Clear zone (mm), adhesive [2, 8]: 15 mm
Clear zone (mm), adhesive [2, 9]: 18 mm
Clear zone (mm), adhesive [2, 10]: 19 mm
Clear zone (mm), adhesive [2, 11]: 25 mm
Clear zone (mm), primer [2, 15]: 7.5 mm
Clear zone (mm), primer [2, 13]: 8.5 mm
Clear zone (mm), primer [2, 14]: 17.5 mm
clear zone after thermal shock [3]: 14.5 mm
clear zone before thermal shock [3]: 16 mm
antibacterial activity after thermal shock [3]: maintained the excellent antibacterial activity

O=C(Nc1ccc(Cl)cc1)Nc1ccc(Cl)c(Cl)c1 [3,4,4-trichloro-Carbanilide, reference compound]
MIC minimum inhibitory concentration [1]: ≥ 1%

Cn1sccc1=O [2-methyl-4-isothiazoline-3-one, reference compound]
zone of inhibition at 0.1 % [1, 16]: 5 mm
zone of inhibition at 1 % [1, 16]: 12 mm
MIC minimum inhibitory concentration [1]: 0.1%

N#Cc1c(Cl)c(Cl)c(Cl)c(C#N)c1Cl [Chlorothalonil, reference compound]
zone of inhibition at 0.1 % [1, 6]: 2 mm
zone of inhibition at 1 % [1, 7]: 4 mm
MIC minimum inhibitory concentration [1]: 0.1%

Molybdenum (VI) oxide [Molybdenum (VI) oxide 99.99%, reference compound]
CZ (mm) clear zone [1, 17]: 6 mm
MIC minimum inhibitory concentration [1]: 1.0%

Oc1cc(Cl)ccc1Oc1ccc(Cl)cc1Cl [Irgasan, irgasan]
zone of inhibition at 0.01 % [1, 16]: 5 mm
zone of inhibition at 0.1 % [1, 16]: 11 mm
zone of inhibition at 1 % [1, 16]: 14 mm
antibacterial activity relative to other commercially used antibacterial agents [1]: 10 times
Clear zone (mm), primer [2, 12]: 3.5 mm
Clear zone (mm), primer [2, 15]: 1.5 mm
Clear zone (mm), primer [2, 13]: 1.5 mm
Clear zone (mm), primer [2, 14]: 6 mm
clear zone after thermal shock [3]: 13 mm
clear zone before thermal shock [3]: 13 mm
antibacterial activity after thermal shock [3]: maintained the excellent antibacterial activity

O=CCCCC=O [Glutar-di-aldehyde, 50 wt %, Glutar-di-aldehyde, reference compound]
CZ (mm) clear zone [1, 18]: 6 mm
CZ (mm) clear zone [1, 17]: 12 mm
MIC minimum inhibitory concentration [1]: 0.1%

c1ccc2[nH]c(-c3cscn3)nc2c1 [Thiabendazole minimum 99%, Thiabendazole, reference compound]
MIC minimum inhibitory concentration [1]: ≥ 1%

[O-]n1ccccc1=S.[O-]n1ccccc1=S.[Zn+2] [1-hydroxypyridine-2-thionezinc, reference compound]
CZ (mm) clear zone [1, 18]: 1 mm
CZ (mm) clear zone [1, 17]: 3.5 mm
MIC minimum inhibitory concentration [1]: 0.1%

CCCCNC(=O)OCC#CI [3-iodo-2-propynyl n-butylcarbamate, 97%, 3-iodo-2-propynyl n-butylcarbamate, reference compound]
zone of inhibition at 0.1 % [1, 6]: 3 mm
zone of inhibition at 1 % [1, 7]: 5.5 mm
MIC minimum inhibitory concentration [1]: 0.1%

Cc1cc(O)cc(C)c1Cl [4-chloro-3,5-dimethylphenol, reference compound]
zone of inhibition at 0.1 % [1, 6]: 1 mm
zone of inhibition at 1 % [1, 7]: 16 mm
MIC minimum inhibitory concentration [1]: 0.1%
